Results as given in paper PMC7721897, “Metabolism and pharmacokinetics of a novel polyphenol fatty acid ester phloridzin docosahexaenoate in Balb/c female mice” (Scientific Reports, 2020).
One block for each molecule: values may come before it.

Legend:
[1] = Serum pharmacokinetics after intraperitoneal injection; type: in vivo, Balb/c female mice; settings: PZ-DHA 100 mg/kg intraperitoneal, serum
Description: Figure 4 Intraperitoneal administration of PZ-DHA results in absorption into the systemic circulation of Balb/c female mice. PZ-DHA (100 mg/kg) was administered by intraperitoneal injection to Balb/c female mice. Blood collection was performed and serum was separated. PZ-DHA was identified and quantified using a calibration curve (R^2 = 0.99) generated using a standard series of PZ-DHA concentrations made in mouse serum. PZ-DHA concentration was plotted against time. The elimination rate of PZ-DHA was determined using a semi-log curve of PZ-DHA concentration vs. time curve.
(§1) Pharmacokinetic parameters and in vivo generation of PZ-DHA metabolites were studied using Balb/c female mice. Mice were randomly divided into six groups (n = 4/group) and PZ-DHA (100 mg/kg) was administered by intraperitoneal injection. For each mouse, a single blood collection was performed by cardiac puncture at one of six different time points (t = 15, 30, 60, 90, 120, and 240 min). At the end of blood collection, mice were euthanized by cervical dislocation and organs (liver, lungs, kidneys, spleen, and brain) were harvested. Blood samples were allowed to clot by leaving undisturbed at room temperature for 1 h, and serum was separated by centrifuging at 2000×g for 10 min at 4 °C. The serum was carefully removed and stored on ice until further processing. Serum proteins were precipitated by incubating an aliquot of serum with a mixture of acetonitrile:acetone (80:20) containing 0.1 mg/mL quercetin (internal standard) at 4 °C overnight. The supernatant was separated by centrifuging at 14,000×g for 10 min at 4 °C. Excess solvent was evaporated using nitrogen flush and mixed with methanol and filtered. PZ-DHA-metabolites in the filtrate were identified using a UPLC-ESI–MS/MS (Waters Limited, Mississauga, ON, Canada). Organs were homogenized in PBS (1:5 w/v). Supernatants were collected by centrifugation at 14,000 × g for 15 min at 4 °C. Proteins were precipitated by incubating in acetonitrile:acetone (80:20) containing 0.1 mg/mL quercetin (internal standard) at 4 °C overnight. Supernatants were treated as explained above, and PZ-DHA and/or PZ-DHA-metabolites were identified.
A calibration curve (R^2 = 0.99) generated using a standard series of PZ-DHA concentrations prepared in mouse serum (spiked with 0.1 mg/mL quercetin) was used for the quantification of PZ-DHA. The average PZ-DHA concentrations were plotted against time. The maximum serum concentration of serum (Cmax) and the time to reach Cmax (Tmax) were read directly from the graph. The linear trapezoidal method was used to calculate the area under the curve (AUC) from t = 0 to infinity, the biological half-life of PZ-DHA (t1/2), determined using the plotted curve in Graphpad Prism software (version 5; La Jolla, CA, USA). The clearance following IP administration was determined by non-compartmental analysis using the relationship CL/F = D/AUC. The elimination rate constant λ was determined by linear regression of the elimination phase of the semi-log transformed concentration versus time curve. The t1/2 was calculated using the formula 0.693/λ and the volume of distribution Vd/F from the formula Vd/F = CL/(F*λ).

[2] = In vitro phase I metabolism with mouse hepatic microsomes and NADPH; type: in vitro ADME; settings: PZ-DHA 1.1 µM, 100 mM NADPH, 1 h, 37 °C
Description: Figure 2 PZ-DHA undergoes phase I metabolism in the presence of freshly prepared mouse liver microsomes. PZ-DHA (1.1 µM) was incubated with 100 mM NADPH in the presence of mouse liver microsome for 1 h at 37 °C. Metabolites from PZ-DHA (A) hydrolysis, (B) and (C) hydroxylation, and (D) epoxidation were identified.
Mouse hepatic microsomes were freshly isolated from the livers of male C57BL/6 mice, and the entire extraction procedure was carried out at 4 °C. Mouse livers were minced and homogenized in KCl/sucrose phosphate buffer (0.154 M KCl, 0.25 M sucrose in 50 mM potassium phosphate buffer (K2HPO4/KH2PO4) (PPB), pH 7.5). Cell/tissue debris was separated out by centrifuging homogenized livers at 12,000×g for 22 min at 4 °C. The supernatant was collected and centrifuged at 100,000×g for 70 min at 4 °C. The pellet was gently rinsed using 50 mM PPB and resuspended in glycerol/phosphate buffer (20% glycerol (v/v), 80% 0.1 M PPB pH 7.5). The protein concentration was determined using a Bradford assay (R^2 = 1.00), and microsomes were stored at − 80 °C.
Potential in vitro phase I and phase II metabolites of PZ-DHA were detected by incubating PZ-DHA in the presence of freshly-prepared mouse hepatic microsome preparations. Phase I metabolites were determined by incubating 1.1 µM PZ-DHA with 100 mM NADPH in the presence of mouse hepatic microsomes for 1 h at 37 °C. Phase II methylation, glucuronidation, and sulphation of PZ-DHA was determined by incubating 1.1 µM PZ-DHA with 1 mM SAM, 2 mM UDPGA, and 0.5 mM PAPS, respectively, in the presence of freshly prepared mouse hepatic microsome for 1 h at 37 °C (Supplementary information Tables S1–S4). To assess the efficiency of the metabolic process, controls (no PZ-DHA control, no mouse hepatic microsome control and no co-factor control) were incubated in parallel to the test. Reactions were terminated by adding a mixture of 4 mL ice-cold acetonitrile:acetone (80:20) containing 0.05 mg/mL quercetin as the internal standard. Proteins were precipitated by incubating the reaction mixture at 4 °C overnight and separated by centrifuging at 14,000 × g for 15 min at 4 °C. Supernatants were concentrated under nitrogen flush, filtered and PZ-DHA and/or PZ-DHA metabolites were identified using a UPLC-ESI–MS/MS system (Waters Limited, Mississauga, ON, Canada).
(§2) PZ-DHA and/or PZ-DHA metabolites in malignant/non-malignant epithelial cell lysates, in vitro microsome enzyme reaction mixtures, and mouse serum aliquots were determined using UPLC-ESI–MS/MS instrument (Waters Limited, Mississauga, ON, Canada). All mass spectroscopic analyses were performed using mass scan (full-scan, identification of unknowns) and single ion monitoring (SIM; quantification of PZ, DHA, PZ-DHA, and quercetin) modes of a Waters H-class UPLC separations module coupled with a Micromass Quattro micro API MS/MS system and MassLynx V4.0 control software. An Allure biphenyl column (100 mm × 2.1 mm, 1.8 μm, Restek Pure Chromatography, Bellefonte, PA, USA) and a flow rate of 0.3 mL/min were employed. ESI- mode with a capillary voltage of 3000 V and a nebulizer gas (N2) temperature of 375 °C were used. A volume of 2 µL sample was injected.

[3] = test system: mammary carcinoma cells and mammary epithelial cells; test: Cellular uptake assay, all cell lines together; type: cell-based, human and mouse; settings: all cell lines, 20 μM, 72 h
Description: Figure 1 Conjugation of PZ with DHA increases the cellular uptake and stability of PZ and DHA. The cells were treated with 20 μM of PZ, DHA or PZ-DHA and cultured for 72 h at 37 °C. Cells were harvested and washed thoroughly using cold PBS. Cells were lysed in cold acetone containing 0.05 mg/mL quercetin, and cell lysates were collected by centrifugation and analyzed by using UPLC-ESI-MS/MS. (A) mean % cellular uptake of PZ, DHA and PZ-DHA. (B) fold increase in intracellular PZ and DHA when conjugated. ANOVA multiple means statistical comparison method was performed and differences among means were compared using Tukey’s test; *p < 0.05. (MDA-MB-231 p = 0.008; MDA-MB-468 p = 0.01; 4T1 p = 0.02; MCF-7 p = 0.01; MCF-10A p = 0.0005).
Cells were seeded at a density of 3 × 10^5 cells (MDA-MB-231, MDA-MB-468, MCF-7, and MCF-10A) or 1 × 10^5 cells (4T1) /T-75 flask. The cells were cultured overnight to promote cell adhesion. Adherent cells were treated with a sub-cytotoxic concentration (20 μM) of PZ, DHA or PZ-DHA and cultured for 72 h at 37 °C. The supernatant was carefully removed, and cell monolayers were washed with cold PBS. Cells were harvested using TrypLE Express and washed thoroughly with cold PBS. The cell pellet was resuspended in 3 mL of cold acetone containing 0.05 mg/mL quercetin as the internal standard, and incubated overnight at 4 °C. Cell lysates were collected by centrifugation at 14,000×g for 15 min at 4 °C and samples were concentrated by evaporating acetone under a stream of nitrogen gas. Dry pellets were reconstituted in methanol and filtered. The sample was analyzed using a UPLC/ESI/MS system. The percentage cell uptake of the total dose was quantified using standard curves of PZ (R^2 = 0.99), DHA (R^2 = 0.98) or PZ-DHA (R^2 = 0.99) made in methanol.
as §2

[4] = test system: mammary carcinoma cells, including MDA-MB-231 and 4T1; set-up: method as in PMID 31473253; settings: 20 µM for PZ-DHA; cited from earlier work
[5] = In vitro phase II metabolism with mouse hepatic microsomes and SAM, UDPGA or PAPS; type: in vitro ADME; settings: PZ-DHA 1.1 µM, SAM, 1 h, 37 °C
Description: Figure 3 PZ-DHA undergoes phase II metabolism in the presence of freshly prepared mouse liver microsomes. PZ-DHA (1.1 µM) was incubated with S-(5′-adenosyl)-L-methionine chloride dihydrochloride (1 mM), […] (2 mM) and alamethicin (25 µg/mL) and adenosine 3′-phosphate 5′-phosphosulfate lithium salt, hydrate (0.5 mM) in the presence of mouse liver microsomal enzymes (3 mg/mL) at 37 °C for 1 h. (A) Tri-methylated-PZ-DHA (4,4′,6′-tri-O-methyl-phloridzin docosahexaenoate) (MW = 788.88 g/mol), (B) phloridzin docosahexaenoate-4-O-glucuronide (MW = 923.02 g/mol) and phloridzin docosahexaenoate-4′-O-glucuronide (MW = 923.02 g/mol), and (C) sulfated-PZ-DHA (phloridzin docosahexaenoate-4,4′-di-O-sulphide) metabolite (MW = 906.20 g/mol) were identified.
Mouse hepatic microsomes were freshly isolated from the livers of male C57BL/6 mice, and the entire extraction procedure was carried out at 4 °C. Mouse livers were minced and homogenized in KCl/sucrose phosphate buffer (0.154 M KCl, 0.25 M sucrose in 50 mM potassium phosphate buffer (K2HPO4/KH2PO4) (PPB), pH 7.5). […] The protein concentration was determined using a Bradford assay (R^2 = 1.00), and microsomes were stored at − 80 °C.
Potential in vitro phase I and phase II metabolites of PZ-DHA were detected by incubating PZ-DHA in the presence of freshly-prepared mouse hepatic microsome preparations. Phase I metabolites were determined by incubating 1.1 µM PZ-DHA with 100 mM NADPH in the presence of mouse hepatic microsomes for 1 h at 37 °C. Phase II methylation, glucuronidation, and sulphation of PZ-DHA was determined by incubating 1.1 µM PZ-DHA with 1 mM SAM, 2 mM UDPGA, and 0.5 mM PAPS, respectively, in the presence of freshly prepared mouse hepatic microsome for 1 h at 37 °C (Supplementary information Tables S1–S4). […]
PZ-DHA and/or PZ-DHA metabolites in malignant/non-malignant epithelial cell lysates, in vitro microsome enzyme reaction mixtures, and mouse serum aliquots were determined using UPLC-ESI–MS/MS instrument (Waters Limited, Mississauga, ON, Canada). […]

human plasma proteins = settings: ref Boulton et al.; cited from earlier work
[6] = Tissue distribution of PZ-DHA and metabolites after intraperitoneal injection; type: in vivo, Balb/c female mice; settings: PZ-DHA 100 mg/kg intraperitoneal
Description: Figure 5 PZ-DHA and metabolites were detected in various organs of PZ-DHA-treated Balb/c female mice. PZ-DHA (100 mg/kg) was administered by intraperitoneal injection to Balb/c female mice and liver, lungs, kidneys, spleen and brain were harvested. Organs were homogenized and PZ-DHA in (A) liver, kidneys, lungs, spleen, and brain was identified and quantified using a calibration curve. The abundance of (B) 4,4′,6′-tri-O-methyl-phloridzin docosahexaenoate in liver, kidneys, lungs, and serum) and (C) phloridzin docosahexaenoate-4,4′-di-O-sulphide in the liver was determined in PZ-DHA equivalence.
as §1

phase I metabolite in serum after PZ-DHA [1]: detection
phase I metabolite of PZ-DHA identified [2]: identified
cellular uptake (as a % of the dose), in words [3]: very low
Molecule: CC/C=C\C/C=C\C/C=C\C/C=C\C/C=C\C/C=C\CCC(=O)O [DHA, docosahexaenoic acid, reference compound]
migration and invasion of mammary carcinoma cells [4]: to a lesser extent than PZ-DHA

phase II metabolite of PZ-DHA identified [5]: identified
Molecule: CC/C=C\C/C=C\C/C=C\C/C=C\C/C=C\C/C=C\CCC(=O)OC[C@H]1O[C@@H](Oc2cc(O[C@@H]3O[C@H](C(=O)O)[C@@H](O)[C@H](O)[C@H]3O)cc(O)c2C(=O)CCc2ccc(O)cc2)[C@H](O)[C@@H](O)[C@@H]1O [phloridzin docosahexaenoate-4′-O-glucuronide]

Molecule: O=c1c(O)c(-c2ccc(O)c(O)c2)oc2cc(O)cc(O)c12 [quercetin]
bound to human plasma proteins (human plasma proteins): 99.1%
freely available in the plasma (human plasma proteins): 0.9%

phase II metabolite of PZ-DHA identified [5]: identified
Molecule: CC/C=C\C/C=C\C/C=C\C/C=C\C/C=C\C/C=C\CCC(=O)OC[C@H]1O[C@@H](Oc2cc(O)cc(O)c2C(=O)CCc2ccc(O[C@@H]3O[C@H](C(=O)O)[C@@H](O)[C@H](O)[C@H]3O)cc2)[C@H](O)[C@@H](O)[C@@H]1O [phloridzin docosahexaenoate-4-O-glucuronide]

phase I metabolite of PZ-DHA identified [2]: identified
Molecule: O=C(CCc1ccc(O)c(O)c1)c1c(O)cc(O)cc1O[C@@H]1O[C@H](CO)[C@@H](O)[C@H](O)[C@H]1O [3-hydroxy-phloridzin]

phase I metabolite of PZ-DHA identified [2]: identified
Molecule: CC/C=C\C/C=C\C/C=C\C/C=C\C/C=C\C/C=C\CCC(=O)OC[C@H]1O[C@@H](Oc2cc(O)cc(O)c2C(=O)CCc2ccc(O)c(O)c2)[C@H](O)[C@@H](O)[C@@H]1O [3-hydroxy-phloridzin docosahexaenoate]

phase I metabolite of PZ-DHA identified [2]: identified
Molecule: tri-epoxy-phloridzin docosahexaenoate

phase I metabolite in serum after PZ-DHA [1]: detection
phase I metabolite of PZ-DHA identified [2]: identified
cellular uptake (as a % of the dose), in words [3]: very low
Molecule: O=C(CCc1ccc(O)cc1)c1c(O)cc(O)cc1O[C@@H]1O[C@H](CO)[C@@H](O)[C@H](O)[C@H]1O [PZ, phloridzin]
migration and invasion of mammary carcinoma cells [4]: to a lesser extent than PZ-DHA

time at which the metabolite reached the maximum concentration, post-injection ([6]; all organs except for serum): < 1 h
metabolite detection in tissue after PZ-DHA ([6]; liver, lungs, and kidneys): detected
metabolite concentration in serum throughout the experimental period ([6]; serum): remained constant
metabolite detection in tissue after PZ-DHA ([6]; spleen or brain): not found
phase II metabolite of PZ-DHA identified [5]: identified
Molecule: CC/C=C\C/C=C\C/C=C\C/C=C\C/C=C\C/C=C\CCC(=O)OC[C@H]1O[C@@H](Oc2cc(OC)cc(OC)c2C(=O)CCc2ccc(OC)cc2)[C@H](O)[C@@H](O)[C@@H]1O [4,4′,6′-tri-O-methyl-phloridzin docosahexaenoate]
